Tests used:
[1] = tested on: ABA levels in AGE:NCED6 Camelina seeds; experiment: ABA quantification in Camelina seeds by mass spectrometry; assay type: in vivo, Camelina sativa; settings: after application of MOF
Procedure: ABA was quantified by a previously published method (44), but was modified to ABA. Briefly, samples were ground in liquid nitrogen and internal standards ([…] of 2.5 mM) were added. Samples were extracted with 1.5 mL acetonitrile/methanol (1:1 v:v). After lyophilization, samples were resolubilized in […] of 50% MeOH. For LC separation, two monolithic C18 columns (Onyx, 4.6 mm×100 mm, Phenomenex) with a guard cartridge were used flowing at 1 mL min^−1. […] For quantitation, a series of standards were prepared containing different concentrations of ABA mixed with D-labeled ABA (250 μmol/sample). […] The peak areas of endogenous ABA were normalized with the corresponding internal standard and then calculated according to the standard curve.
To examine whether ABA levels in the AGE: NCED6 seeds were affected by gene induction, ABA in wild-type and the AGE: NCED6 seeds was quantified by mass spectrometry, as described previously. […]

[2] = tested on: AGE:CYP707A2 transgenic Camelina seeds; experiment: Germination test of Camelina AGE:CYP707A2 seeds; assay type: in vivo, Camelina sativa; settings: imbibed three days in the presence of MOF or MOF+ABA (1 mM ABA)
Procedure: (§1) For the induction experiment in imbibed seeds, seeds were placed in 9 cm plastic petri dishes on two layers of filter paper (No. 2, Whatman Inc.) moistened with 4 mL water or (122.6 μM or 2×10,000) MOF or 1 mM ABA and incubated at 4° C. for overnight and at 22° C. for 72 h (germination tests and gene expression analysis).
To determine whether there was an effect of AGE: CYP707A2 transgenic seeds on germination during imbibitions, wild-type and homozygous seeds from transgenic plant lines, 14-3, 3-6, and 2-1, were imbibed for three days in the presence of MOF or in the presence of MOF+ABA.

[3] = tested on: Arabidopsis NCED6 expression in AGE:NCED6 Camelina seeds; experiment: Real time PCR analysis of Arabidopsis NCED6 in Camelina seeds; assay type: in vivo, Camelina sativa; settings: imbibed three days in the presence or absence of MOF
[4] = tested on: AGE:NCED6 transgenic Camelina seeds; experiment: Germination test of Camelina AGE:NCED6 seeds; assay type: in vivo, Camelina sativa; set-up: recovery of germination of MOF-induced AGE:NCED6 Camelina seeds: dose or concentration left out as unconfirmed
Procedure: as §1
To determine whether there was an effect of the AGE: NCED6 expression vector on the ability of transgenic seeds to undergo germination, wild-type and homozygous seeds from transgenic plant lines, 16-12, 17-17, and 13-12, were imbibed for three days in the presence or absence of MOF. […] Control seeds of non-transgenic plants were shown the same in the presence or absence of MOF. Germination of Camelina seeds is observed initially as ruptured testa followed by emergence of the […] when the radicle emerges.

[5] = tested on: control seeds of non-transgenic plants; experiment: Germination test of wild-type Camelina seeds; assay type: in vivo, Camelina sativa; settings: presence or absence of MOF
Procedure: as §1

AGE:NCED6 seeds = experiment: Germination test of imbibed AGE:NCED6 seeds; assay type: in vivo, Arabidopsis thaliana; settings: 10 μM fluridone co-applied with Intrepid®2F
Procedure: Briefly, for the induction of AGE:NCED6 plants at ˜10 rosette stages, diluted (×10,000), Intrepid®2F (Dow AgroSciences) solution which contained 62 μM MOF as an active ingredient was applied directly to the soil in pots containing Arabidopsis seedlings by drenching. Seedling were harvested two days after induction and frozen at −80° C. before RNA extraction. For the induction experiments in imbibed seeds, seeds were placed in 9 cm plastic petri dishes on two layers of filter paper (No. 2, Whatman Inc) moistened with 3.5 mL water or Intrepid®2F (×10,000) and incubated at 4° C. for 3 days and at 22° C. for 29 h (gene expression analysis) or 5 days (germination tests).

Compound	ABA in AGE:NCED6 Camelina seeds [1]	germination of AGE:CYP707A2 Camelina seeds, line 2-1 [2] [%]	germination of AGE:CYP707A2 Camelina seeds, line 3-6 [2] [%]	germination of AGE:CYP707A2 Camelina seeds, line 14-3 [2] [%]	Arabidopsis NCED6 expression in Camelina seeds by real time PCR [3]	inhibition of germination (endosperm rupture and radicle protrusion), line 13-12 ([4]; AGE:NCED6 Camelina line 13-12, MOF, three days) [%]	inhibition of germination (endosperm rupture and radicle protrusion), line 16-12 ([4]; AGE:NCED6 Camelina line 16-12, MOF, three days) [%]	inhibition of germination (endosperm rupture and radicle protrusion), line 17-17 ([4]; AGE:NCED6 Camelina line 17-17, MOF, three days) [%]	germination of AGE:NCED6 Camelina seeds ([4]; imbibed three days in the presence of MOF (122.6 μM))	germination of control seeds of non-transgenic Camelina plants [5]	recovery of germination of ligand-suppressed AGE:NCED6 seeds (AGE:NCED6 seeds)	recovery of germination of MOF-induced AGE:NCED6 Camelina seeds ([4]; co-application of MOF and fluridone, data not shown)
COc1cccc(C(=O)NN(C(=O)c2cc(C)cc(C)c2)C(C)(C)C)c1C [MOF, methoxyfenozide]	remarkable increase in ABA	95	98	99	did not detect	95	89	90	inhibited dramatically	the same		
fluridone											fully rescued	fully rescued

Reference: US20140349852A1, “METABOLIC CONTROL OF SEED GERMINATION” (Oregon State University, priority 2010, published 2014)
